# Test results as given in PubChem BioAssay (NCI).
#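 Five compound concentrations were applied to cells in 96-well plates for 48 hours; endpoints were derived by simple linear interpolation of the resulting dose-response curve. At the GI50, growth is halved. TGI: total growth inhibition.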
# Key:
# Assay in all cases: growth of human tumour cells (NCI), 48 h
# [1] = tested on: HL-60(TB) leukemia
# [2] = tested on: SF-268 CNS
# [3] = tested on: HOP-62 NSCLC
# [4] = tested on: HCT-15 colon
# [5] = tested on: SR leukemia
# [6] = tested on: 786-0 renal
# [7] = tested on: RXF 393 renal
# [8] = tested on: SNB-75 CNS
# [9] = tested on: SN12C renal
# [10] = tested on: BT-549 breast
SMILES,TGI [1],TGI [2],TGI [3],TGI [4],TGI [5],TGI [6],TGI [7],TGI [8],TGI [9],TGI [10],GI50 [1],GI50 [2],GI50 [5],GI50 [7],GI50 [10]
CCCC(CC)c1cc(O)c(O)cc1C(CC)CCC (stereo not drawn),> 10 µM,> 10 µM,> 10 µM,> 10 µM,> 10 µM,> 10 µM,> 10 µM,> 10 µM,> 10 µM,> 10 µM,–,–,–,–,–
COC(=O)c1c(C)cccc1C1CN=NC12Cc1cccc(C)c1C2=O (stereo not drawn),33.6 µM,> 100 µM,> 100 µM,> 100 µM,> 100 µM,> 100 µM,> 100 µM,> 100 µM,> 100 µM,88.6 µM,–,–,–,–,–
CCCCCCCCCCC[N+]1(Cc2ccccc2)CC2CCN(Cc3ccccc3)CC2C1 (stereo not drawn),0.277 µM,2.13 µM,2.14 µM,2.96 µM,1.07 µM,2.21 µM,1.95 µM,2.45 µM,1.5 µM,1.4 µM,–,–,–,–,–
CC(C)CCCC(C)[C@H]1CC[C@H]2NCCCC[C@]12C (stereo partly drawn),5.91 µM,32.2 µM,29.1 µM,6.91 µM,6.23 µM,10.5 µM,4.62 µM,16 µM,18.7 µM,29.9 µM,–,–,–,–,–
COC(=O)NC(Nc1ccc(C)cc1)(C(F)(F)F)C(F)(F)F,> 100 µM,> 100 µM,> 100 µM,> 100 µM,> 100 µM,> 100 µM,93.9 µM,> 100 µM,> 100 µM,> 100 µM,–,–,–,–,–
C#Cc1cccc(Nc2ncnc3cc(OCCOC)c(OCCOC)cc23)c1,> 100 µM,> 100 µM,59.7 µM,> 100 µM,> 100 µM,48 µM,34.9 µM,46.7 µM,> 51.6 µM,98.7 µM,20.6 µM,14.6 µM,9.98 µM,3.97 µM,33.4 µM
CC(=O)Nc1nc(C)c(S(=O)(=O)NC(=O)N2c3ccccc3CCc3ccccc32)s1,> 100 µM,> 100 µM,> 100 µM,> 100 µM,> 100 µM,> 100 µM,> 100 µM,> 100 µM,> 100 µM,> 100 µM,–,–,–,–,–
O=C1CCc2cc3c(cc21)C(C(=O)O)CC3 (stereo not drawn),> 100 µM,> 100 µM,> 100 µM,> 100 µM,> 100 µM,> 100 µM,> 100 µM,> 100 µM,> 100 µM,> 100 µM,–,–,–,–,–
Cc1cn(C2CC(SCCO)C(CO)O2)c(=O)[nH]c1=O (stereo not drawn),> 100 µM,> 100 µM,> 100 µM,> 100 µM,> 100 µM,> 100 µM,> 100 µM,> 100 µM,> 100 µM,> 100 µM,–,–,–,–,–
NC(=O)CC[C@H]1C(=O)N=C(N)N1C(=O)OCc1ccccc1,> 100 µM,> 100 µM,> 100 µM,> 100 µM,> 100 µM,> 100 µM,> 100 µM,> 100 µM,> 100 µM,> 100 µM,–,–,–,–,–
O=C(c1ccccc1)c1ccc2nc(-c3c(Cl)c(Cl)c(Cl)c(Cl)c3C(=O)Nc3ccco3)[nH]c2c1,98.3 µM,> 100 µM,> 100 µM,> 100 µM,58.8 µM,> 100 µM,> 100 µM,> 100 µM,> 100 µM,74 µM,–,–,–,–,–
CCOC(=O)c1c(SCCN2CCCCC2)n(-c2ccccc2)c(=S)n(-c2ccccc2)c1=O,> 33.8 µM,> 75.4 µM,40.8 µM,9.82 µM,> 20.4 µM,28.1 µM,25.7 µM,37.1 µM,37.5 µM,31.1 µM,–,–,–,–,–
CN(c1ccc(Cl)cc1)S(=O)(=O)c1ccccc1,> 100 µM,> 100 µM,> 100 µM,> 100 µM,> 100 µM,> 100 µM,62.3 µM,> 100 µM,> 100 µM,> 100 µM,–,–,–,–,–
C=C(C)C(=O)O[C@H]1CC2(CO)O[C@@H]2CC/C(COC(C)=O)=C/C2OC(=O)C(=C)[C@@H]21 (stereo partly drawn),29.6 µM,> 100 µM,> 100 µM,> 96.7 µM,43.3 µM,> 31.6 µM,26.4 µM,> 100 µM,> 100 µM,52.1 µM,–,–,–,–,–
O=c1cnc2cc3ccccc3cc2[nH]1,> 100 µM,> 100 µM,> 100 µM,> 100 µM,> 100 µM,> 100 µM,> 100 µM,> 100 µM,> 100 µM,> 100 µM,–,–,–,–,–
O=C1Sc2cc3ccccc3cc2C(=O)Sc2cc3ccccc3cc21,27.1 µM,> 83.7 µM,> 85.2 µM,90.7 µM,9.27 µM,59 µM,35.7 µM,> 100 µM,75.7 µM,> 100 µM,–,–,–,–,–
CCCOC1OC(CS(=O)(=O)O)C(OC(C)=O)C(OC(C)=O)C1OC(C)=O (stereo not drawn),> 100 µM,–,> 100 µM,> 100 µM,> 100 µM,–,> 100 µM,> 100 µM,> 100 µM,> 100 µM,–,–,–,–,–
